# Molecular target: ATP-dependent translocase ABCB1 (Homo sapiens, UniProt P08183)
# Assay: Inhibition of P-glycoprotein expressed in MDR CCRF vcr1000 cells by daunorubicin efflux assay
# Chain of ATP-dependent translocase ABCB1 (P08183 whole entry): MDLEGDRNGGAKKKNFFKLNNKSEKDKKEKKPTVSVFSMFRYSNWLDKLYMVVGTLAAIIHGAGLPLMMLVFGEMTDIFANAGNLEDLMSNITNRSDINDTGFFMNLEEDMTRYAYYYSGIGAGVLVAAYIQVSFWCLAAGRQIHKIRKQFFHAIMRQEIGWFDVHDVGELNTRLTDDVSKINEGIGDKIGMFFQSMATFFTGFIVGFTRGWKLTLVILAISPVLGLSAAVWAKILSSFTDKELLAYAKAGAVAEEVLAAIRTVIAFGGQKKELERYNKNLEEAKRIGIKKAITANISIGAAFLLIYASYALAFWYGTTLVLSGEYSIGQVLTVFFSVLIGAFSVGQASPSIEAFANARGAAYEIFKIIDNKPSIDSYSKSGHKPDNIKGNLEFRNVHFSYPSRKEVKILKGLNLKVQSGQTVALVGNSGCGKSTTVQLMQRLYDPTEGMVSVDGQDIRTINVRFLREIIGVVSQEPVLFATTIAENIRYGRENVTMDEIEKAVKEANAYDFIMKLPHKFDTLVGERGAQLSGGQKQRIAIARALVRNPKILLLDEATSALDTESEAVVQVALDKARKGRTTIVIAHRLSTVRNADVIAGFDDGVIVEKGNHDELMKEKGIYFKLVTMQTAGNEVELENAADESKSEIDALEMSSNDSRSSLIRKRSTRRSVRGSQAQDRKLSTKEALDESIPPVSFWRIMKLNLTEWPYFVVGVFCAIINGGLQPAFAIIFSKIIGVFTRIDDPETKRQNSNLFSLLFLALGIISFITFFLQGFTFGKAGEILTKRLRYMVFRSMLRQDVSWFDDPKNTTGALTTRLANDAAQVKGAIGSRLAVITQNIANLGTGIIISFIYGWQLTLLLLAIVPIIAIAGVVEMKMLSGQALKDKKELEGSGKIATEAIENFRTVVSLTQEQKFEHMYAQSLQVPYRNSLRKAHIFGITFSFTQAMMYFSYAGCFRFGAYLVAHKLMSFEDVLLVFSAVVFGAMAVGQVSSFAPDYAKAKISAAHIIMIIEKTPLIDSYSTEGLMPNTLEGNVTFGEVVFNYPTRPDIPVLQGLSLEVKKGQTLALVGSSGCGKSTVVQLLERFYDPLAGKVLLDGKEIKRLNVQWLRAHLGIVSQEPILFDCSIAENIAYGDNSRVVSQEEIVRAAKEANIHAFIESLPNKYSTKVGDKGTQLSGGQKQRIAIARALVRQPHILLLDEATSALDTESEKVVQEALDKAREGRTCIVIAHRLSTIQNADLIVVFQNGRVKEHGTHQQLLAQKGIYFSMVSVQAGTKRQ
row,Compound,EC50
1,CCCNCC(O)c1oc2ccccc2c1CC (stereo not drawn),11500 nM
2,CN(C)CC(O)COc1ccccc1C(=O)CCc1ccccc1 (stereo not drawn),2480 nM
3,CC(=O)c1ccccc1OCC(O)CN1CCN(c2ccc(F)cc2)CC1 (stereo not drawn),2090 nM
4,CCC(=O)c1ccccc1OCC(O)CN1CCOCC1 (stereo not drawn),67000 nM
5,O=C(CCc1ccccc1)c1cc(OCc2ccccc2)ccc1OCC(O)CN1CCN(Cc2ccccc2)CC1 (stereo not drawn),116 nM
6,O=C(CCc1ccccc1)c1ccccc1OCC(O)CNCC(c1ccccc1)c1ccccc1 (stereo not drawn),797 nM
7,O=C(CCc1ccccc1)c1ccc(OCC(O)CN2CCOCC2)cc1 (stereo not drawn),6880 nM
8,O=C(CCc1ccccc1)c1ccccc1OCC(O)CNC1CCCCC1 (stereo not drawn),341 nM
9,O=C(CCc1ccccc1)c1cccc(OCC(O)CN2CCN(c3ccc(F)cc3)CC2)c1 (stereo not drawn),1120 nM
10,O=C(CCc1ccccc1)c1cccc(OCC(O)CN2CCCCC2)c1 (stereo not drawn),424 nM
11,COC(CCc1ccccc1)c1ccccc1OCC(O)CN(C(C)C)C(C)C (stereo not drawn),658 nM
12,COC(CCc1ccccc1)c1ccccc1OCC(O)CN1CCN(c2ccc(F)cc2)CC1 (stereo not drawn),226 nM
13,COC(CCc1ccccc1)c1ccccc1OCC(O)CN1CCCCC1 (stereo not drawn),173 nM
14,COc1cccc(N2CCN(CC(O)COc3ccccc3C(=O)CCc3ccccc3)CC2)c1 (stereo not drawn),678 nM
15,OC(COc1ccccc1C(O)CCc1ccccc1)CN1CCN(c2ccc(F)cc2)CC1 (stereo not drawn),671 nM
16,O=C(CCc1ccccc1)c1ccc(OCC(O)CN2CCCCC2)cc1 (stereo not drawn),972 nM
17,CC(C)N(CC(O)COc1ccc(C(=O)CCc2ccccc2)cc1)C(C)C (stereo not drawn),915 nM
18,CCC(=O)c1ccccc1OCC(O)CN1CCCCC1 (stereo not drawn),14300 nM
19,O=C(CCc1ccccc1)c1ccccc1OCC(O)CN1CCN(c2ccccc2)CC1 (stereo not drawn),610 nM
20,COC(CCc1ccccc1)c1ccccc1OCC(O)CN1CCOCC1 (stereo not drawn),1810 nM
21,CC(=O)c1ccc(OCC(O)CN2CCCCC2)cc1 (stereo not drawn),49000 nM
22,CCCNCC(O)COc1ccc(OCc2ccccc2)cc1C(=O)CCc1ccccc1 (stereo not drawn),110 nM
23,CC(=O)c1ccccc1OCC(O)CN1CCC(O)(c2ccccc2)CC1 (stereo not drawn),3200 nM

row,Compound,EC50
1,O=C(CCc1ccccc1)c1cc(O)ccc1OCC(O)CN1CCCCC1 (stereo not drawn),1730 nM
2,O=C(CCc1cccc2ccccc12)c1ccccc1OCC(O)CNCCC(c1ccccc1)c1ccccc1 (stereo not drawn),723 nM
3,O=C(CCc1ccccc1)c1ccc(OCC(O)CN2CCN(c3ccc(F)cc3)CC2)cc1 (stereo not drawn),2540 nM
4,O=C(c1ccccc1)c1ccccc1OCC(O)CN1CCC(O)(c2ccccc2)CC1 (stereo not drawn),307 nM
5,O=C(c1ccccc1)c1ccccc1OCC(O)CN1CCN(c2ccc(F)cc2)CC1 (stereo not drawn),147 nM
6,O=C(CCc1ccccc1)c1ccccc1OCC(O)CNc1ccccc1 (stereo not drawn),6470 nM
7,CC(C)N(CC(O)COc1ccc(O)cc1C(=O)CCc1ccccc1)C(C)C (stereo not drawn),1040 nM
8,CC(=O)c1cccc(OCC(O)CN2CCOCC2)c1 (stereo not drawn),128000 nM
9,CCOCCOC(=O)c1ccc(N)cc1,312000 nM
10,COc1ccc(C2Nc3ccccc3C(=O)N2c2ccc(NC(C)=O)cc2)cc1 (stereo not drawn),20900 nM
11,C=CCn1c(SCCCC)nc2c(c1=O)C1(CCCC1)Cc1ccccc1-2,3500 nM
12,CC(=O)c1c(C)cc(C)c(CSc2nc3ccc(NC(=O)c4ccc(C(C)(C)C)cc4)cc3s2)c1C,280 nM
13,CCOc1ccccc1NC(=O)C1=C(C)NC(=S)NC1c1cccs1 (stereo not drawn),8770 nM
14,CCOC(=O)C(=NNc1c(Cl)cc(Cl)cc1Cl)C(=O)OCC,17700 nM
15,COc1ccc(C(=O)CCc2ccccc2)c(OCC(O)CN2CCN(c3ccccc3C)CC2)c1 (stereo not drawn),296 nM
16,COc1ccc(OCC(O)CN2CCN(c3ccccc3C)CC2)c(C(C)=O)c1 (stereo not drawn),859 nM
17,CC(=O)c1c(C)cc(C)c(CSc2nc3ccc(NC(=O)c4cccc5ccccc45)cc3s2)c1C,110 nM
18,O=C(CCc1ccccc1)c1cccc(OCC(O)CN2CCOCC2)c1 (stereo not drawn),3480 nM
19,Cc1ccccc1N1CCN(CC(O)COc2ccccc2C(=O)CCc2ccc(Cl)cc2)CC1 (stereo not drawn),19 nM
20,O=C(CCc1ccccc1)c1ccccc1OCCCCCN1CCCCC1,242 nM
21,Cc1ccccc1N1CCN(CC(O)COc2ccccc2C(=O)CCc2ccc(N(C)C)cc2)CC1 (stereo not drawn),13 nM
22,CCOc1ccc(N2C(=O)c3ccccc3NC2c2ccc(N(C)C)cc2)cc1 (stereo not drawn),25100 nM
23,CC(=O)c1ccccc1OCC(O)CN1CCOCC1 (stereo not drawn),207000 nM

row,Compound,EC50
1,COc1cccc(/C=N/NC(=O)C(=O)NC(C)(C)C)c1O,102000 nM
2,CCc1ccc(N2C(=O)c3ccccc3NC2c2ccc(OCc3ccccc3)cc2)cc1 (stereo not drawn),> 100000 nM
3,Cn1cc(I)c(C(=O)NNC(=O)c2ccnn2C)n1,> 500000 nM
4,COc1ccc(C2Nc3ccccc3C(=O)N2c2ccc(Oc3ccccc3)cc2)cc1 (stereo not drawn),1000 nM
5,O=C(N/N=C/c1c(F)cccc1Cl)C(=O)N1CCCCCC1,159000 nM
6,CC1c2ccccc2OC1C(=O)N1CCCCC1 (stereo not drawn),104000 nM
7,O=C(C1Oc2ccccc2C1CCc1ccccc1)N1CCCCC1 (stereo not drawn),6660 nM
8,CC(=O)c1c(C)cc(C)c(CSc2nc3ccc(NC(=O)CCc4ccccc4)cc3s2)c1C,300 nM
9,CC(=O)c1ccc(OCC(O)CNCCC(c2ccccc2)c2ccccc2)cc1 (stereo not drawn),178 nM
10,O=C(CCc1ccccc1)c1ccccc1OCC(O)CN1CCC(Cc2ccccc2)CC1 (stereo not drawn),259 nM
11,O=C(CCc1ccccc1)c1ccccc1OCCCCCCCN1CCCCC1,179 nM
12,Cc1ccc(CCC(=O)c2ccccc2OCC(O)CN2CCN(c3ccccc3C)CC2)cc1 (stereo not drawn),18 nM
13,O=C(CCc1ccccc1)c1ccccc1OCCCCCCCCN1CCCCC1,137 nM
14,Cc1ccccc1N1CCN(CC(O)COc2cccc(C(=O)CCc3ccccc3)c2)CC1 (stereo not drawn),74 nM
15,Cc1ccc(-c2n[nH]c3c2C(c2ccc(N(C)C)cc2)C(C#N)=C(N)O3)cc1 (stereo not drawn),3080 nM
16,CCCNC[C@H](O)c1oc2ccccc2c1CCc1ccccc1,1060 nM
17,COC(CCc1ccccc1)c1ccccc1OCC(O)CNCCC(c1ccccc1)c1ccccc1 (stereo not drawn),752 nM
18,CC(=O)c1ccccc1OCC(O)CN1CCC(Cc2ccccc2)CC1 (stereo not drawn),357 nM
19,O=C(CCc1ccccc1)c1cccc(OCC(O)CNCCC(c2ccccc2)c2ccccc2)c1 (stereo not drawn),190 nM
20,Cc1cccc(N2CCN(CC(O)COc3cccc(C(=O)CCc4ccccc4)c3)CC2)c1C (stereo not drawn),137 nM
21,O=C(CCc1ccccc1)c1ccccc1OCCN1CCCCC1,1450 nM
22,O=C(CCc1ccccc1)c1ccccc1OCC(O)CN(C(c1ccccc1)c1ccccc1)C(c1ccccc1)c1ccccc1 (stereo not drawn),10400 nM
23,CCc1ccc(N2C(=O)c3ccccc3NC2c2ccc(OCC(C)C)cc2)cc1 (stereo not drawn),1210 nM

row,Compound,EC50
1,c1ccc(CCC2c3ccccc3OC2CN2CCCCC2)cc1 (stereo not drawn),1620 nM
2,CC(C)(C)c1ccc(N2C(=O)c3ccccc3NC2c2ccc3c(c2)OCO3)cc1 (stereo not drawn),730 nM
3,CC(C)(C)c1ccc(C(=O)Nc2ccc3nc(SCc4cccc5ccccc45)sc3c2)cc1,> 20000 nM
4,CC(C)(C)c1ccc(CSc2nc3ccc(NC(=O)c4ccc(C(C)(C)C)cc4)cc3s2)cc1,> 50000 nM
5,COc1ccc(-n2c(C3=NNC(=O)CC3)n[nH]c2=S)cc1,> 250000 nM
6,Clc1ccccc1-c1nc(N2CCCC2)c2ccccc2n1,5940 nM
7,O=C(CCc1ccccc1)c1ccccc1OCC(O)CN1CCN(c2ccc(F)cc2)CC1 (stereo not drawn),70 nM
8,O=C(CCc1ccccc1)c1ccccc1OCC(O)CN1CCCCC1 (stereo not drawn),599 nM
9,O=C(CCc1cccc2ccccc12)c1ccccc1OCC(O)CN1CCCCC1 (stereo not drawn),172 nM
10,O=C(CCc1ccccc1)c1ccccc1OCC(O)CNCCC(c1ccccc1)c1ccccc1 (stereo not drawn),717 nM
11,O=C(CCc1ccccc1)c1cc(OCc2ccccc2)ccc1OCC(O)CN1CCCCC1 (stereo not drawn),172 nM
12,O=C(CCc1ccccc1)c1ccccc1OCC(O)CN1CCC(O)(c2ccccc2)CC1 (stereo not drawn),58 nM
13,O=C(CCc1ccccc1)c1ccccc1OCC(O)CN1CCN(Cc2ccccc2)CC1 (stereo not drawn),659 nM
14,CC(C)N(CC(O)COc1ccccc1C(O)CCc1ccccc1)C(C)C (stereo not drawn),1740 nM
15,COc1ccccc1N1CCN(CC(O)c2oc3ccccc3c2CCc2ccccc2)CC1 (stereo not drawn),177 nM
16,COc1ccccc1N1CCN(CC(O)COc2ccccc2C(=O)CCc2ccccc2)CC1 (stereo not drawn),230 nM
17,OC(COc1ccccc1C(O)CCc1ccccc1)CN1CCCCC1 (stereo not drawn),901 nM
18,OC(COc1ccccc1C(O)CCc1ccccc1)CN1CCOCC1 (stereo not drawn),9540 nM
19,COc1ccc(C(=O)CCc2ccc(N(C)C)cc2)c(OCC(O)CN2CCN(c3ccccc3C)CC2)c1 (stereo not drawn),40 nM
20,CC(=O)c1cccc(OCC(O)CN2CCN(c3ccccc3C)CC2)c1 (stereo not drawn),537 nM
21,O=C(CCc1ccccc1)c1ccc(OCC(O)CNCCC(c2ccccc2)c2ccccc2)cc1 (stereo not drawn),505 nM
22,Cc1cccc(N2CCN(CC(O)COc3ccc(C(=O)CCc4ccccc4)cc3)CC2)c1C (stereo not drawn),227 nM
23,CC1c2ccccc2OC1CN1CCCCC1 (stereo not drawn),48900 nM

row,Compound,EC50
1,c1ccc(CCc2c(CCN3CCCCC3)oc3ccccc23)cc1,980 nM
2,CCC(C)c1ccc(C2Nc3ccccc3C(=O)N2c2ccc(Cl)cc2)cc1 (stereo not drawn),820 nM
3,CCC(C)c1ccc(N2C(=O)c3ccccc3NC2c2ccc(C(C)C)cc2)cc1 (stereo not drawn),290 nM
4,COc1ccc(CC(O)CO)cc1OC (stereo not drawn),> 500000 nM
5,O=C(CCc1ccccc1)c1ccccc1OCCCCN1CCCCC1,533 nM
6,O=C(CCc1ccccc1)c1ccccc1OCCCN1CCCCC1,651 nM
7,CCCCOc1ccc(C(=O)Nc2ccc3nc(SCc4c(C)cc(C)c(C(C)=O)c4C)sc3c2)cc1,97 nM
8,Cc1cc(C)n(-c2nnc(N/N=C\c3cccnc3)nn2)n1,158000 nM
9,CCC(C)c1ccc(N2C(=O)c3ccccc3NC2c2ccc(OC)cc2)cc1 (stereo not drawn),760 nM
10,CCCN(C)CC(O)COc1ccccc1C(=O)CCc1ccccc1 (stereo not drawn),416 nM
11,CN(C)c1ccc(-c2nc(C(F)(F)F)nc(C(F)(F)F)n2)cc1,> 100000 nM
12,CCCNC[C@@H](O)c1oc2ccccc2c1CCc1ccccc1,1100 nM
13,O=C(CCc1ccccc1)c1ccccc1OCCCCCCN1CCCCC1,203 nM
14,CC(C)OC(CCc1ccccc1)c1ccccc1OCC(O)CN1CCCCC1 (stereo not drawn),460 nM
15,CC(=O)c1ccccc1OCC(O)CN1CCCCC1 (stereo not drawn),32000 nM
16,CCN(CC)CC(O)COc1ccccc1C(=O)c1ccccc1 (stereo not drawn),2320 nM
17,CCN(CC)CC(O)COc1ccccc1C(=O)CCc1ccccc1 (stereo not drawn),907 nM
18,COc1ccc(N2CCN(CC(O)COc3ccccc3C(=O)CCc3ccccc3)CC2)cc1 (stereo not drawn),256 nM
19,O=C(CCc1ccccc1)c1ccccc1OCC(O)CN1CCOCC1 (stereo not drawn),3650 nM
20,Cc1ccccc1N1CCN(CC(O)COc2ccccc2C(=O)CCc2ccccc2)CC1 (stereo not drawn),27 nM
21,CC(C)N(CC(O)COc1ccccc1C(=O)CCc1ccccc1)C(C)C (stereo not drawn),377 nM
